Experimental data reported in PubChem BioAssay AID2060617 (Molecular Pharmacology Branch, DTP, NCI, 2025).

System: 485368-065-R4-J2-PDC spheroids with HUVEC/MSC, viability
Assay: Anticancer human tumor 485368-065-R4-J2-PDC patient-derived pancreatic carcinoma cell line growth inhibition [CLK]
Settings: for IC50: curve of first compound; for viability, T/C: stronger effect = lower value
Excerpt: A high-throughput screen of multi-cell type tumor spheroids was designed to identify active combinations of […] and targeted small molecules. Complex spheroids include a stromal component modeled by human endothelial cells (HUVEC) and fibroblasts modeled by human mesenchymal stem cells (MSCs). The concentration ranges selected for each drug and investigational agent were based upon clinically achievable concentrations if the clinical Cmax of the agent was known.
Compounds. The drugs and investigational agents: cirtuvivint (SM08502; NSC835563), CC-671 (NSC850746), vemurafenib (NSC761431), tapotoclax (NSC804041), sotorasib (NSC818433), adagrasib (NSC831453), MRTX-1133 (NSC836407), BAY2416964 (NSC825713), copanlisib (NSC816437), inavolisib (NSC800729), abemaciclib (NSC768073), osimertinib (NSC779217), entinostat (NSC756642), eltanexor (KPT-8602, NSC794443), venetoclax (NSC766270), ceralasertib (NSC777638), bortezomib (NSC756655), olaparib (NSC753686), talazoparib (NSC767125), alisertib (NSC759677), peposertib (NSC802822), gemcitabine (NSC613327), 5-fluorouracil (NSC19893), SN-38 (NSC673596), oxaliplatin (NSC266046), paclitaxel (NSC125973), and doxorubicin (NSC123127), were obtained from the National Cancer Institute (NCI) Developmental Therapeutics Program Chemical Repository. The FDA-approved anticancer drug set is available from the Developmental Therapeutics Program at https://dtp.cancer.gov/organization/dscb/obtaining/available plates.htm. […] The stock solutions were prepared in dimethyl sulfoxide (DMSO, Sigma-Aldrich, St. Louis, MO, cat. D2650), except for the platinum complexes which were prepared in saline (Quality Biological, Gaithersburg, MD, cat. 114-055-101), at 800-fold the tested concentration and stored at -70 degrees C prior to their use. All drugs and investigational agents were tested over a range starting from a high concentration at or near the clinical Cmax and decreasing in half-log increments. If the clinical Cmax for an agent had not been determined, the highest concentration tested was 10 microM.
Cell Culture. All cells were maintained in an incubator at 37 degrees C and 5% CO2 with 95% humidity. The PDC lines were cultured according to standard operating procedures established by the NCI PDMR. Briefly, all PDCs were thawed and cultured in Matrigel-coated flasks prepared with a working solution of 1X Ham's F-12 nutrient mix, without supplementation (Invitrogen, Waltham, MA, cat. 11765054), 100 U/mL penicillin-streptomycin (Invitrogen, cat. 15140122), and 2.5% Matrigel (Corning Inc., Corning, NY, cat. 354248) for the first three passages. The 947758-054-R-J2-PDC line was cultured in 6B/Colon 1A media, which includes advanced DMEM/F-12 (Thermo Fisher Scientific, cat. 12634028), 10 mM HEPES (Thermo Fisher Scientific, cat. 15630080), 1X GlutaMAX supplement (Thermo Fisher Scientific, cat. 35050061), 0.1 mg/mL primocin (InvivoGen, cat. ant-pm-2), 10% defined fetal bovine serum, heat inactivated (HyClone Laboratories Inc., cat. SH30070.03HI), 1.25 mM N-Acetyl-L-cysteine (Sigma-Aldrich, cat. A9165), 10 mM nicotinamide (Sigma-Aldrich, cat. N0636), 1X B-27 supplement (Thermo Fisher Scientific, cat. 17504044), 1X N-2 supplement (Thermo Fisher Scientific, cat. 17502048), and 10 microM Y-27632 dihydrochloride (Tocris Bioscience, cat. 1254). The 876862-298-R-J1-PDC was cultured in 6E media, which includes all 6B/Colon 1A media components plus 50% L-WRN conditioned media (ATCC, cat. CRL-3276), 50 ng/mL recombinant human EGF recombinant protein (hEGF; Thermo Fisher Scientific, cat. PHG0311), 10 ng/mL recombinant human fibroblast growth factor 10 (hGFG-10; PeproTech, cat. 100-26), 1 ng/mL recombinant human fibroblast growth factor 2 (hFGF-2; PeproTech, cat. 100-18B), and 1 µM prostaglandin E2 (PGE2; Tocris, cat. 2296). The 227483-062-R1-J1-PDC line was cultured in Panc media, containing all 6E components except hFGF-2, with the addition of 500 nM SB-431542 (Selleckchem, cat. S1067) and 10 nM gastrin (Tocris, cat. 3006). […]

[1] = second compound 0.0316 µM, first compound 0.0316 µM
[2] = second compound 0.0316 µM, first compound 0.1 µM
[3] = second compound 0.0316 µM, first compound 0.316 µM
[4] = second compound 0.0316 µM, first compound 1 µM
[5] = second compound 0.0316 µM, first compound 3.16 µM
[6] = second compound 0.0316 µM, first compound 10 µM
[7] = second compound 0.1 µM, first compound 0.0316 µM
[8] = second compound 0.1 µM, first compound 0.1 µM
[9] = second compound 0.1 µM, first compound 0.316 µM
[10] = second compound 0.1 µM, first compound 1 µM
[11] = second compound 0.1 µM, first compound 3.16 µM
[12] = second compound 0.1 µM, first compound 10 µM
[13] = second compound 0.316 µM, first compound 0.0316 µM
[14] = second compound 0.316 µM, first compound 0.1 µM
[15] = second compound 0.316 µM, first compound 0.316 µM
[16] = second compound 0.316 µM, first compound 1 µM
[17] = second compound 0.316 µM, first compound 3.16 µM
[18] = second compound 0.316 µM, first compound 10 µM
[19] = second compound 1 µM, first compound 0.0316 µM
[20] = second compound 1 µM, first compound 0.1 µM
[21] = second compound 1 µM, first compound 0.316 µM
[22] = second compound 1 µM, first compound 1 µM
[23] = second compound 1 µM, first compound 3.16 µM
[24] = second compound 1 µM, first compound 10 µM
[25] = second compound 3.16 µM, first compound 0.0316 µM
[26] = second compound 3.16 µM, first compound 0.1 µM
[27] = second compound 3.16 µM, first compound 0.316 µM
[28] = second compound 3.16 µM, first compound 1 µM
[29] = second compound 3.16 µM, first compound 3.16 µM
[30] = second compound 3.16 µM, first compound 10 µM
[31] = second compound 10 µM, first compound 0.0316 µM
[32] = second compound 10 µM, first compound 0.1 µM
[33] = second compound 10 µM, first compound 0.316 µM
[34] = second compound 10 µM, first compound 1 µM
[35] = second compound 10 µM, first compound 3.16 µM
[36] = second compound 10 µM, first compound 10 µM
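Further: spheroids exposed to compounds for seven days.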
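Wherever viability, T/C is given: 100% = DMSO vehicle control wells.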

**Q.** `C=CC(=O)N1CCN(c2nc(=O)n(-c3c(C)ccnc3C(C)C)c3nc(-c4c(O)cccc4F)c(F)cc23)C(C)C1` (centres undefined) + CN1CCN(c2cc(C(=O)Nc3cc4cc(-c5cnn(C)c5)ccc4cn3)ccn2)CC1 was tested. Which IC50 (second compound 0.0316 µM) did it give?
**A.** > 10 µM

**Q.** And the IC50 (second compound 0.1 µM)?
**A.** > 10 µM

**Q.** What about the IC50 (second compound 0.316 µM) of the same molecule?
**A.** > 10 µM

**Q.** What about the IC50 (second compound 1 µM) of the same molecule?
**A.** < 0.0316 µM

**Q.** What about the IC50 (second compound 3.16 µM) of the same molecule?
**A.** < 0.0316 µM

**Q.** What about the IC50 (second compound 10 µM) of the same molecule?
**A.** < 0.0316 µM

**Q.** What about the viability, T/C [1] of the same molecule?
**A.** 107%

**Q.** And the viability, T/C [2]?
**A.** 106%

**Q.** And the viability, T/C [3]?
**A.** 99.6%

**Q.** What about the viability, T/C [4] of the same molecule?
**A.** 104%

**Q.** What about the viability, T/C [5] of the same molecule?
**A.** 99.5%

**Q.** What about the viability, T/C [6] of the same molecule?
**A.** 106%

**Q.** And the viability, T/C [7]?
**A.** 96.7%

**Q.** What about the viability, T/C [8] of the same molecule?
**A.** 121%

**Q.** And the viability, T/C [9]?
**A.** 107%

**Q.** What about the viability, T/C [10] of the same molecule?
**A.** 108%

**Q.** And the viability, T/C [11]?
**A.** 105%

**Q.** And the viability, T/C [12]?
**A.** 102%

**Q.** What about the viability, T/C [13] of the same molecule?
**A.** 83.3%

**Q.** What about the viability, T/C [14] of the same molecule?
**A.** 86.6%

**Q.** What about the viability, T/C [15] of the same molecule?
**A.** 94.9%

**Q.** What about the viability, T/C [16] of the same molecule?
**A.** 94.1%

**Q.** What about the viability, T/C [17] of the same molecule?
**A.** 88.9%

**Q.** What about the viability, T/C [18] of the same molecule?
**A.** 78.7%

**Q.** And the viability, T/C [19]?
**A.** 1.22%

**Q.** And the viability, T/C [20]?
**A.** 1.11%

**Q.** What about the viability, T/C [21] of the same molecule?
**A.** 1.36%

**Q.** What about the viability, T/C [22] of the same molecule?
**A.** 1.9%

**Q.** What about the viability, T/C [23] of the same molecule?
**A.** 3.44%

**Q.** And the viability, T/C [24]?
**A.** 3.58%

**Q.** And the viability, T/C [25]?
**A.** 3.01%

**Q.** What about the viability, T/C [26] of the same molecule?
**A.** 2.65%

**Q.** What about the viability, T/C [27] of the same molecule?
**A.** 2.4%

**Q.** What about the viability, T/C [28] of the same molecule?
**A.** 2.51%

**Q.** What about the viability, T/C [29] of the same molecule?
**A.** 4.69%

**Q.** And the viability, T/C [30]?
**A.** 10.6%

**Q.** What about the viability, T/C [31] of the same molecule?
**A.** 1.58%

**Q.** And the viability, T/C [32]?
**A.** 2.84%

**Q.** What about the viability, T/C [33] of the same molecule?
**A.** 2.36%

**Q.** And the viability, T/C [34]?
**A.** 3.44%

**Q.** And the viability, T/C [35]?
**A.** 4%

**Q.** What about the viability, T/C [36] of the same molecule?
**A.** 8.87%

**Q.** What does the source list for `Nc1ccccc1NC(=O)c1ccc(CNC(=O)OCc2cccnc2)cc1` + CNC(=O)c1ccc(Nc2nc(OC3CCCC3)c3c(-c4ccc5nc(C)oc5c4)c[nH]c3n2)c(OC)c1?
**A.** IC50 (second compound 0.0316 µM): 6.71 µM; IC50 (second compound 0.1 µM): 6.55 µM; IC50 (second compound 0.316 µM): 6.73 µM; IC50 (second compound 1 µM): 5.72 µM; IC50 (second compound 3.16 µM): 5.1 µM; IC50 (second compound 10 µM): 5.51 µM; viability, T/C [1]: 89.6%; viability, T/C [2]: 96.7%; viability, T/C [3]: 94.7%; viability, T/C [4]: 90.3%; viability, T/C [5]: 82.8%; viability, T/C [6]: 32.4%; viability, T/C [7]: 92.1%; viability, T/C [8]: 93.8%; viability, T/C [9]: 102%; viability, T/C [10]: 87.3%; viability, T/C [11]: 81.7%; viability, T/C [12]: 31.9%; viability, T/C [13]: 74.4%; viability, T/C [14]: 79.8%; viability, T/C [15]: 83.9%; viability, T/C [16]: 89.7%; viability, T/C [17]: 83.2%; viability, T/C [18]: 33.1%; viability, T/C [19]: 86%; viability, T/C [20]: 80.8%; viability, T/C [21]: 71.3%; viability, T/C [22]: 77.9%; viability, T/C [23]: 70.6%; viability, T/C [24]: 30.6%; viability, T/C [25]: 71.5%; viability, T/C [26]: 74.8%; viability, T/C [27]: 72.2%; viability, T/C [28]: 65.9%; viability, T/C [29]: 65.6%; viability, T/C [30]: 29.3%; viability, T/C [31]: 67.6%; viability, T/C [32]: 73.9%; viability, T/C [33]: 67.8%; viability, T/C [34]: 73.6%; viability, T/C [35]: 69.8%; viability, T/C [36]: 28.6%
